The record followed here is ChEMBL document CHEMBL5727145, “Aminoindane-, aminotetrahydronaphthalene- and aminobenzocyclobutane-derived PRMT5-inhibitors” (2018).

The target of this test is Protein arginine N-methyltransferase 5 (Homo sapiens, UniProt O14744). Description: iochemical Assay: Compounds of the invention may be tested for in vitro activity in the following assay: A histone H4 derived peptide is used as substrate (amino acid sequence: […]NH2). Full-length PRMT5 enzyme (NCBI Reference sequence NP-006100.2) was co-expressed with Hiss-MEP50 in insect cells and purified via Nickel immobilized metal affinity and gel filtration chromatograph.The 6 μL assay reactions are run in Greiner brand black 384-well low volume plates. All reactions contained assay buffer (phosphate buffered saline, 0.01% (v/v) Tween-20, 0.01% (w/v) albumin from chicken egg white, 1 mM dithiothreitol, 200 nM peptide substrate, 1 μM S-Adenosyl methionine, and 15 ng/reaction enzyme, with the enzyme being omitted from negative control reactions. Compounds were added in a volume of 100 nL from dilution series prepared in DMSO, positive and negative control reactions receiving the same volume DMSO without compound. The plates were sealed with adhesive seals and incubated for 4 hours at 37° C. Reaction progress was measured using the Transcreener™ EPIGEN methyltransferase assay (BellBrook Labs, Madison, Wis.) as recommended by the manufacturer. To each reaction 2 μL detection mix were added, containing coupling enzymes, fluorescence polarisation tracer, and AMP antibody. […].
Protein arginine N-methyltransferase 5, sequence (O14744 whole entry): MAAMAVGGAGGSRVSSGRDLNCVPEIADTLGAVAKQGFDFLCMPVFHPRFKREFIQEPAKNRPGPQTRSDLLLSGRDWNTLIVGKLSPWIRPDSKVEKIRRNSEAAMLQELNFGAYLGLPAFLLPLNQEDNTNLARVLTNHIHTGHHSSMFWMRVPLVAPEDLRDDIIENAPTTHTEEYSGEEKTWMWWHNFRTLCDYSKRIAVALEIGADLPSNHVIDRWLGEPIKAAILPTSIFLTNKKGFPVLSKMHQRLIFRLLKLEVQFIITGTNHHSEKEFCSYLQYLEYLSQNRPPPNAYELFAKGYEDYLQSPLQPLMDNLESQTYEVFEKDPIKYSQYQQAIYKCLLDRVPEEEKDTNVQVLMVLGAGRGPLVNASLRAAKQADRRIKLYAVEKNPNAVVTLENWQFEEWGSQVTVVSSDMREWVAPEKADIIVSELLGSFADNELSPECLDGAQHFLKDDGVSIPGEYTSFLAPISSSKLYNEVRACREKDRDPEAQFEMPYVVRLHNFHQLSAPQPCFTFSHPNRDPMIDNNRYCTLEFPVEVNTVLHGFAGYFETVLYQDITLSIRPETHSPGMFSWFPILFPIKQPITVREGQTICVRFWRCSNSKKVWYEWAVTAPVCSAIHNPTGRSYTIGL

`COc1ccc(-c2cc(C(=O)NC[C@H](O)CNC3Cc4ccccc4C3)on2)cc1` displayed an IC50 of 2.45 µM.
The same measure for `CNC(=O)c1cccc(C(=O)NC[C@@H](O)CNC2Cc3ccccc3C2)c1`: 31.4 µM.
